Results: patent US20160030367A1, “Methods and Compositions for Preventing Metastasis and for Improving the Survival Time” (INSERM (INSTITUT NATIONAL DE LA SANTÉ ET DE LA RECHERCHE …, priority 2013, published 2016)
Starred links: 1 amine or outer side, 2 acyl side, 3 side chain; linkers in the order of their positions; H or OH if unused. Positions of bridges follow the written chain, without caps; N, C: chain ends. Non-standard residues stand in square brackets, D forms with d. Residues, ends and D or L forms follow the SMILES beside them. Chains are numbered I, II in the order given. Actinocin(9to1) = Cc1c2oc3c(C)ccc(C(=O)[*:1])c3nc-2c(C(=O)[*:2])c(N)c1=O; NMeV = CN[C@H](C(=O)O)C(C)C; Sar = CNCC(=O)O

Columns and labels:
WM9 melanoma cells = test: Three-dimensional spheroid invasion into collagen; type: cell-based
Description: Melanoma spheroids were prepared using the liquid overlay method. Briefly, 500 μL of melanoma cells (20000/ml) were added to a 24-well plate coated with 1.5% agar (Difco, Sparks, Md.). Plates were left to incubate for 72 hours, by which time cells had organized into three-dimensional spheroids. Spheroids were then harvested using a P1000 pipette. The medium was removed and the spheroids were implanted into a gel of bovine collagen I containing MEM (Invitrogen). Normal melanoma medium was overlaid on top of the solidified collagen. After different time, pictures of the invading spheroids were taken using a Zeiss microscope.

1205Lu melanoma cells [1] = test: Invasion assay in Matrigel-coated Boyden chambers; type: cell-based, human; conditions: for cell invasion, dose dependence: indicated concentrations
Description: (§1) Boyden chambers (8.0-μm pores, Transwell, Corning, Inc.) were coated with 1 mg/ml Matrigel® (BD Biosciences) and were placed into 24-well chambers containing medium supplemented with 10% FCS. The cells were resuspended in FCS-starved medium, loaded into the top chamber. […] Results represent the average of triplicate samples from three independent experiments.

A375 melanoma cells [2] = test: Invasion assay in Matrigel-coated Boyden chambers; type: cell-based; conditions: 24 h; for cell invasion, dose dependence: indicated concentrations
Description: as §1

1205Lu melanoma cells [3] = test: Migration assay in Boyden chambers; type: cell-based, human; conditions: after 24 hours
Description: as §1, with “Inc.)” for “Inc.) were coated with 1 mg/ml Matrigel® (BD Biosciences) and”

A375 melanoma cells [4] = test: Migration assay in Boyden chambers; type: cell-based; conditions: after 24 hours
Description: as §1, with “Inc.)” for “Inc.) were coated with 1 mg/ml Matrigel® (BD Biosciences) and”

1205Lu melanoma cells [5] = test: Wound healing assay; type: cell-based, human
A375 melanoma cells [6] = test: Wound healing assay; type: cell-based
[7] = test system: melanoma cells freshly isolated from patients; test: Invasion assay in Matrigel-coated Boyden chambers; type: cell-based, human; conditions: 10 mM, 24 h
Description: Different cancer cell lines were purchased from American Tissue Culture Collection (Molsheim, France). Cells were grown in RPMI 1640 (A375, WM9, SKMel28 and LNCap) or in DMEM medium (1205Lu, Mel501, Mewo and PC3) supplemented with 10% FCS and penicillin/streptomycin (100 U/ml/[…]) at 37° C. and 5% CO2. Patient melanoma cells were prepared as described (13). Briefly, biopsy was dissected and digested for 1-2 h with collagenase A (0.33 U/ml), dispase (0.85 U/ml) and Dnase I (144 U/ml) with rapid shaking at 37° C. Large debris were removed by filtration through a […] cell strainer. Viable cells were obtained by Ficoll gradient centrifugation.
Boyden chambers (8.0-μm pores, Transwell, Corning, Inc.) were coated with 1 mg/ml Matrigel® (BD Biosciences) and were placed into 24-well chambers containing medium supplemented with 10% FCS. The cells were resuspended in FCS-starved medium, loaded into the top chamber. 5 h later, cells adherent to the underside of the filters were fixed with 4% PFA and stained with 0.4% crystal violet, and five random fields at 20× magnification were counted. Results represent the average of triplicate samples from three independent experiments.

[8] = test system: Fibronectin, N-Cadherin, Vimentin, Sparc, Slug and Snail in 1205Lu melanoma cells; test: Western blot of EMT markers; type: cell-based, human
Description: (§2) Protein were extracted in buffer containing TRIS-HCl pH7.5 50 mM, NaCl 15 mM, Triton X-100 1% and protease and phosphatase inhibitor 1X. Briefly, cell lysates (30 μg) were separated by SDS-PAGE, transferred onto a PVDF membrane (Millipore, Molsheim, France) and then exposed to the appropriate antibodies. Proteins were visualized with the ECL system from Amersham (Arlington, Heights, Ill., USA). The western blots shown are representative of at least 3 independent experiments.

total MMP activity = test: Matrix metalloproteinase (MMP) activity measurement, fluorogenic substrate, culture media of 1205Lu cells; type: cell-based, human; conditions: 10 mM, 24 h
Description: The culture media from stimulated cells were harvested and incubated in a 96-well plate with 0.2 mM of NH2-RA-Dpa-LGLP-AMC as a substrate for various times at 37° C. MMP activity was measured in quadruplicate by quantifying the emission at 460 nm (excitation at 390 nm) in the presence or absence of 10 μM CP471474. The enzyme activities were expressed in arbitrary units per mg of protein.

MMP-2 = test: Type I collagen substrate zymography, 1205Lu culture media; type: cell-based, human
Description: (§3) The culture media from 1205Lu melanoma cells was concentrated in centrifugal filter unit and loaded on 10% SDS-polyacrylamide gels containing 1 mg/ml type I collagen (BD Biosciences). To estimated the protein concentration, 1205Lu melanoma cells were lysed in a buffer containing 1% Triton X-100, 150 mM NaCl, and 20 mM Tris, pH 7.4, supplemented with a protease inhibitor mixture (Complete EDTA-free, Roche Molecular Biochemicals) at 4° C. under agitation for 30 min. Lysates were clarified by brief spinning, and protein concentration was evaluated by bicinchoninic acid technique (BCA protein assay kit, Pierce). Following electrophoresis, proteins were renatured by incubating gels in 2.5% Triton X-100 for 2 h at 37° C. Gels were then washed three times in distilled water and incubated in substrate buffer (50 mM Tris, pH 7.4, and 1 mM CaCl2) at 37° C. for 24 h with gentle shaking Gels were stained with 0.1% Coomassie Blue R-250 (Sigma) and destained in 7% acetic acid. Enzymatic activities appear as cleared bands in a dark background.

MMP-9 = test: as above; type: cell-based, human
Description: as §3

AMPK = test: Western blot in 1205Lu cells infected with Ad AMPK-DN or Ad control; type: cell-based, human
Description: Adenoviruses encoding a dominant negative form (Ad AMPK-DN) of subunits α1 and α2 of AMPK were a generous gift of Dr. Foufelle (INSERM, UMR-S 872, Paris, France). An adenovirus of which the expression cassette contains the major late promoter with no exogenous gene was used as control (Ad control). Adenoviruses were propagated in human embryonic kidney 293 cells and stored at −80° C.
as §2

[9] = test system: 1205Lu melanoma cells expressing luciferase; test: Lung metastasis model, bioluminescence, nude mice; type: in vivo
Description: 1205Lu cells stably transfected with a vector encoding luciferase cells come from the team of Dr. Tartare-Deckert. A total of 1×10^6/150 μl PBS 1205Lu-Luc cells were injected via the tail vein of nude mice (Harlan Laboratories). […] To perform pulmonary extravasation analysis, 1.5×10^6 1205Lu cells were labelled for 1 h with CellTracker™ Green (Invitrogen) and injected via the tail vein of nude mice.

[10] = test system: Slug and N-cadherin in Mewo cells; test: Western blot in Mewo cells infected with Adp53; type: cell-based; conditions: re-expression of WT p53 by adenovirus infection
Description: as §2

melanomas cells = conditions: long term treatment of 96 hours; cited from earlier work
1205Lu melanoma cells [11] = test: Pulmonary extravasation model in nude mice; conditions: cells treated 24 h with 10 mM before tail vein injection; lungs after 24 h
p53 = test: p53-dependent luciferase reporter assay (PG13-Luc) in melanoma cells; type: cell-based; conditions: positive control
Description: Melanoma cells were seeded in 24-well dishes, and transient transfections were performed the following day using 2 μl Lipofectamine (Gibco-BRL, Eragny, France) and 0.3 mg of PG13-Luc, a p53-dependent firefly luciferase reporter gene in a 200-ml final volume. pCMVβGal plasmid was cotransfected to control the variability of transfection efficiency in the reporter assays. […] At 24 hours after stimulation, cells were harvested in 50 μl of lysis buffer and soluble extracts assayed for luciferase and β-galactosidase activities. All transfections were repeated several times using different plasmid preparations. Luciferase assays were carried out exactly as described (17).

[12] = cells transfected with siRNA against p53

With `CC(C)[C@H](NC(=O)c1ccc2ccccc2n1)C(=O)N[C@@H](CC(=O)O)C(=O)COc1c(F)cccc1F` [QVD] the “cell invasion into collagen” value (WM9 melanoma cells; spheroids embedded in collagen) was “contrary to QVD alone, association of QVD with metformin block invasion”.

In the case of `[H]/N=C(/N)N/C(=N/[H])NCCc1ccccc1` [phenformin], the “cell invasion, dose dependence” value (1205Lu melanoma cells [1]; 24 h) was “decreases cell invasion in dose dependent manner” and the “cell invasion, dose dependence” value (A375 melanoma cells [2]) was “decreases cell invasion in dose dependent manner”.

With `CN(C)C(=N)N=C(N)N` [metformin] the cell migration (1205Lu melanoma cells [3]) was “do not inhibit migration”, the cell migration (A375 melanoma cells [4]) was “do not inhibit migration” and the “cell migration (wound healing)” value (1205Lu melanoma cells [5]) was “Results were confirmed”. For the same molecule, the “cell migration (wound healing)” value (A375 melanoma cells [6]) was “Results were confirmed”, the “cell invasion, dose dependence” value (1205Lu melanoma cells [1]; 24 h) was “decreases cell invasion in dose dependent manner” and the inhibition at 10000 µM (1205Lu melanoma cells [1]; Homo sapiens, 1205Lu, 10 mM, 24 h, read-out: inhibition of cell invasion) was 95%. The inhibition of invasion (1205Lu melanoma cells [1]; [12]) was “prevent downregulation of Slug and inhibition of invasion”, the inhibition of invasion (1205Lu melanoma cells [1]; in presence of dominant negative forms of AMPK) was “abolished” and the “cell invasion, dose dependence” value (A375 melanoma cells [2]) was “decreases cell invasion in dose dependent manner”. The inhibition at 10000 µM (A375 melanoma cells [2]; Homo sapiens, A-375, 10 mM, read-out: inhibition of cell invasion) was 90%, the cell invasion [7] was “significant inhibition of cell invasion” and the “cell invasion into collagen” value (WM9 melanoma cells; in presence of apoptosis inhibitor QVD) was “block invasion”. For the same molecule, the “cell invasion into collagen” value (WM9 melanoma cells; spheroids embedded in collagen) was “significantly reduced cell invasion into collagen”, the N-cadherin expression ([8]; 24 h) was “decrease” and the SPARC expression ([8]; 24 h) was “inhibited in a dose dependent manner”. The Slug level ([8]; 24 h) was “decrease”, the Snail level ([8]; 24 h) was “also decrease” and the fibronectin expression ([8]; 24 h) was “decrease”. The vimentin expression ([8]; 24 h) was “not modified”, the N-cadherin expression ([8]; 24 h, listed as Metformin) was “inhibited in a dose dependent manner” and the Slug level ([8]; 24 h, listed as Metformin) was “also decrease”. The fibronectin expression ([8]; 24 h, listed as Metformin) was “inhibited in a dose dependent manner”, the Slug downregulation [8, 12] was “prevent downregulation of Slug” and the “decrease of total MMP activities” value (total MMP activity) was “approximately 30%”. The MMP-2 activity (MMP-2; 5 mM) was “important diminution”, the “decrease of MMP-2 activity” value (MMP-2; 10 mM) was 80% and the MMP-9 activity (MMP-9; 5 mM) was “important diminution”. For the same molecule, the “decrease of MMP-9 activity” value (MMP-9; 10 mM) was 45%, the “metformin-stimulated phosphorylation of Acetyl-CoA carboxylase (ACC)” value (AMPK; cells infected by AdAMPK DN α1 and α2) was “abolished” and the “Slug and SPARC expression” value (AMPK; cells infected with Ad control) was “inhibited”. For the same molecule, the “Slug and SPARC expression” value (AMPK; expression of AMPK DN constructs) was “abrogates these inhibitory effects”, the “increase in bioluminescence intensity in lungs of vehicle-treated mice compared to metformin-treated mice” value ([9]; 7 days after cell injection, intraperitoneal, 2 mg/mouse/day) was 3 fold and the “bioluminescence intensity in lungs” value ([9]; after 39 day, intraperitoneal, 2 mg/mouse/day) was “very weak”. For the same molecule, the “Slug staining in sections of lung tumors” value ([9]; immunofluorescent staining, vs vehicle) was “significant decrease in Slug staining”, the “decrease in Slug and N-cadherin expressions” value [10] was “restored” and the cell death (melanomas cells) was “induced cell death of melanomas cells”. For the same molecule, the “micro-metastases in the lungs (extravasation)” value (1205Lu melanoma cells [11]) was “much more micro-metastases in the lungs than 1205Lu cells treated by metformin”.

In the case of `Cc1c2oc3c(C)ccc(C(=O)N[C@@H]4C(=O)N[C@H](C(C)C)C(=O)N5CCC[C@H]5C(=O)N(C)CC(=O)N(C)[C@@H](C(C)C)C(=O)O[C@@H]4C)c3nc-2c(C(=O)N[C@@H]2C(=O)N[C@H](C(C)C)C(=O)N3CCC[C@H]3C(=O)N(C)CC(=O)N(C)[C@@H](C(C)C)C(=O)O[C@@H]2C)c(N)c1=O` [Actinomycin D] (I: T[dV]P[Sar][NMeV] / II: T[dV]P[Sar][NMeV]; ester I:1-I:C, II:1-II:C; linker I:N-II:N via Actinocin(9to1)), the “increase of p53 promoter activity” value (p53) was “comparable to metformin 10 mM”.

With `Oc1ccc(/C=C/c2cc(O)cc(O)c2)cc1` [resveratrol, 3,5,4′-trihydroxy-trans-stilbene] the “cell invasion, dose dependence” value (1205Lu melanoma cells [1]; 24 h) was “decreases cell invasion in dose dependent manner” and the “cell invasion, dose dependence” value (A375 melanoma cells [2]) was “decreases cell invasion in dose dependent manner”.

With `NC(=O)c1ncn([C@@H]2O[C@H](CO)[C@@H](O)[C@H]2O)c1N` [AICAR, 5-aminoimidazole-4-carboxamide-1-β-D-ribofuranoside] the “cell invasion, dose dependence” value (1205Lu melanoma cells [1]; 24 h) was “decreases cell invasion in dose dependent manner” and the “cell invasion, dose dependence” value (A375 melanoma cells [2]) was “decreases cell invasion in dose dependent manner”.
